Several values for one entry are separate records, joined by “and”; a condition that tells them apart may be missing. Equal entries are not always repeated.
Key:
[1] = Volume of distribution of FITC-Elohaes compared with Evans Blue labelled albumin in healthy and endotoxic newborn piglets; conditions: approx 1.0 mg/kg, individual piglets and mean; for Vd: pig, in vivo, iv, 1 mg/kg
Protocol: Seventeen piglets were used in this study. The animals were randomised into two groups, a healthy (control) group and an Escherichia coli (endotoxic) group. The animals of the endotoxic group received a bolus injection of E. coli (1.667 μg/kg), followed by a continuous infusion of E. coli (1.667 μg/kg/hr) throughout the experiment. The control group received the same dose of isotonic saline injection and infusion. Approximately 30 minutes thereafter, a sample of blood (0.6 ml) was obtained from the femoral vein catheter prior to injection of the plasma marker. A volume between 0.5 ml and 1.0 ml of the indicator was injected {of approximately 1.0 mg/kg for both plasma markers} via the femoral vein catheter into the bloodstream. The catheter was then flushed clean with an equal volume of isotonic saline. […] As before, following the withdrawal of each sample, the catheter was flushed with an equal volume of isotonic saline. Samples were obtained at various time intervals over a 6 hour period, the majority were collected within the first hour after administration of the plasma marker. Blood samples were then centrifuged at approximately 2500 r.p.m for 10-15 minutes and plasma/serum withdrawn.

[2] = Volume of distribution (plasma volume) of FITC-Elohaes compared to Evans Blue labelled albumin in healthy rabbits; conditions: both, rabbit, in vivo, 0.2 mg/ml
Protocol: All rabbits used were adults of either sex, weighing approximately 3 kg. Both ears of the rabbit were first anaesthetised by topical application of Elma cream about 30 minutes prior to commencement of the procedure. A small cut was made into the left ear vein, using a scalpel, to enable relatively simple blood sampling. A sample of blood (approximately 1.0 ml) was obtained from the cut ear vein and collected into tubes coated with anti-coagulant (EDTA). […] A mixing time of at least 5 minutes was allowed before blood sampling began. Blood samples (≈1.0 ml) were then withdrawn at various time intervals following injection, up to a maximum of 2 days. Most samples were collected within the first 3 hours and no more than 9 post-injection blood samples were taken from each rabbit. The blood samples were then centrifuged {Centaur 2} at 2300 r.p.m. for 10-15 minutes and the plasma withdrawn.
The minimisation procedure was obtained from the NAG library {Numerical Algorithms Group, Oxford; Routine E04FCF:NAGFLIB:1652/0: Mk7: December 1978}. This routine was called by a programme, written by the user and incorporated a subroutine with the appropriate mathematical equation. […]
Thus, the volume of distribution was calculated from the degree of dilution (El-Sayed et al., 1995).

[3] = endotoxic (E. coli) newborn piglets

In the case of Cc1cc(-c2ccc(/N=N/c3ccc4c(S(=O)(=O)O)cc(S(=O)(=O)O)c(N)c4c3O)c(C)c2)ccc1/N=N/c1ccc2c(S(=O)(=O)O)cc(S(=O)(=O)O)c(N)c2c1O [Evans Blue], the VD [1, 3] is reported as 0.1401 L/kg and 0.0917 L/kg and 0.1138 L/kg and 0.1129 L/kg and 0.0783 L/kg, the VD ([1]; healthy newborn piglets) is reported as 0.0851 L/kg and 0.0862 L/kg and 0.0835 L/kg and 0.0869 L/kg and the Vd [1, 3] is reported as 0.0983 L/kg. It also gave a Vd ([1]; healthy newborn piglets) of 0.0896 L/kg and a Vd [2] of 0.0531 L/kg.

Reference: US6355624B1, “Measurement of plasma volume” (University Wales College of Medicine, priority 1997, dated 2002)
